Measurements taken from patent US11066404B2, “Dihydropyrido[2,3-d]pyrimidinone compounds as CDK2 inhibitors” (Incyte Corporation, priority 2018, dated 2021).

Biological target: CDK2/Cyclin E1 (Homo sapiens (Human), UniProt P24941)
Test: CDK2/Cyclin E1 HTRF Enzyme Activity Assay
Type: biochemical
Details: 1 mM ATP
Description: Example A. CDK2/Cyclin E1 HTRF Enzyme Activity Assay
CDK2/Cyclin E1 enzyme activity assays utilize full-length human CDK2 co-expressed as N-terminal GST-tagged protein with FLAG-Cyclin E1 in a baculovirus expression system (Carna Product Number 04-165). Assays are conducted in white 384-well polystyrene plates in a final reaction volume of 8 μL. CDK2/Cyclin E1 (0.25 nM) is incubated with compounds (40 nL serially diluted in DMSO) in the presence of ATP (50 μM or 1 mM) and 50 nM ULight™-labeled eIF4E-binding protein 1 (THR37/46) peptide (PerkinElmer) in assay buffer (containing 50 mM HEPES pH 7.5, 1 mM EGTA, 10 mM MgCl2, 2 mM DTT, 0.05 mg/ml BSA, and 0.01% Tween 20) for 60 minutes at room temperature. The reactions are stopped by the addition of EDTA and Europium-labeled anti-phospho-4E-BP 1 antibody (PerkinElmer), for a final concentration of 15 mM and 1.5 nM, respectively. HTRF signals are read after 1 hour at room temperature on a PHERAstar FS plate reader (BMG Labtech). Data is analyzed with IDBS XLFit and GraphPad Prism 5.0 software using a three or four parameter dose response curve to determine IC50 for each compound.

SMILES	IC50 [nM]
CC1(C)Cc2cnc(NC3CCN(S(C)(=O)=O)CC3)nc2N(c2ccccc2)C1=O [Example 3, 6,6-dimethyl-2-((1-(methylsulfonyl)piperidin-4-yl)amino)-8-phenyl-5,8-dihydropyrido[2,3-d]pyrimidin-7(6H)-one]	100 to 500
CC1(C)Cc2cnc(NC3CCN(S(C)(=O)=O)CC3)nc2N(C2CCOC2)C1=O (racemic) [Example 6, 6,6-dimethyl-2-((1-(methylsulfonyl)piperidin-4-yl)amino)-8-(tetrahydrofuran-3-yl)-5,8-dihydropyrido[2,3-d]pyrimidin-7(6H)-one]	100 to 500
CCC(C(F)F)N1C(=O)C(C)(C)Cc2cnc(NC3CCN(S(C)(=O)=O)CC3)nc21 (racemic) [Example 4, 8-(1,1-difluorobutan-2-yl)-6,6-dimethyl-2-((1-(methylsulfonyl)piperidin-4-yl)amino)-5,8-dihydropyrido[2,3-d]pyrimidin-7(6H)-one]	10 to 100

The next lines start with the values.

IC50 [nM]	SMILES
≤ 10	CC1(C)Cc2cnc(NC3CCN(S(C)(=O)=O)CC3)nc2N(C2CCCC2)C1=O [Example 2, 8-cyclopentyl-6,6-dimethyl-2-((1-(methylsulfonyl)piperidin-4-yl)amino)-5,8-dihydropyrido[2,3-d]pyrimidin-7(6H)-one]
≤ 10	CC1(C)Cc2cnc(Nc3ccc(S(N)(=O)=O)cc3)nc2N(C2CCCC2)C1=O [Example 1, 4-((8-cyclopentyl-6,6-dimethyl-7-oxo-5,6,7,8-tetrahydropyrido[2,3-d]pyrimidin-2-yl)amino)benzenesulfonamide]
100 to 500	Cn1nccc1CN1C(=O)C(C)(C)Cc2cnc(NC3CCN(S(C)(=O)=O)CC3)nc21 [Example 5, 6,6-dimethyl-8-((1-methyl-1H-pyrazol-5-yl)methyl)-2-((1-(methylsulfonyl)piperidin-4-yl)amino)-5,8-dihydropyrido[2,3-d]pyrimidin-7(6H)-one]
